According to ChEMBL document CHEMBL1212763, “Pharmacokinetics and safety of S/GSK1349572, a next-generation HIV integrase inhibitor, in healthy volunteers” (Antimicrob Agents Chemother, 2010):

What was measured:
[1] = Drug level at 24 hrs in healthy human at 10 mg administered as single dose suspension; type: ADME, organism-based; details: in vivo, read-out: Drug uptake
[2] = AUC (0-t) in healthy human at 2 mg administered as single dose suspension; type: ADME, organism-based; details: plasma
[3] = Drug level in healthy human at 25 mg, qd for 10 days administered as suspension measured after last dose; type: ADME, organism-based; details: in vivo, read-out: Drug uptake
[4] = Drug level at 24 hrs in healthy human at 50 mg administered as single dose suspension; type: ADME, organism-based; details: in vivo, read-out: Drug uptake
[5] = test system: Homo sapiens; test: Toxicity in healthy human assessed as incidence of drug related incidence of headache at 25 mg, qd for 10 days administered as suspension measured after last dose; type: organism-based; details: in vivo, 240 h
[6] = AUC (0-t) in healthy human at 100 mg administered as single dose suspension; type: ADME, organism-based; details: plasma
[7] = Drug level at 24 hrs in healthy human at 2 mg administered as single dose suspension; type: ADME, organism-based; details: in vivo, read-out: Drug uptake
[8] = Apparent oral clearance in healthy human at 25 mg administered as single dose suspension; type: ADME, organism-based; details: in vivo
[9] = test system: Homo sapiens; test: Toxicity in healthy human assessed as incidence of drug related incidence of somnolence at 5 mg administered as single dose suspension; type: organism-based; details: in vivo
[10] = AUC (0-infinity) in healthy human at 50 mg administered as single dose suspension; type: ADME, organism-based; design: dose 50 mg, time infinity; details: plasma
[11] = Half life in healthy human at 50 mg administered as single dose suspension; type: ADME, organism-based; details: in vivo
[12] = test system: Homo sapiens; test: Toxicity in healthy human assessed as incidence of drug related incidence of pharyngolaryngeal pain at 25 mg, qd for 10 days administered as suspension measured after last dose coadministered with 3 mg CYP3A4 probe midazolam; type: organism-based; details: in vivo, 240 h
[13] = Apparent oral clearance in healthy human at 50 mg administered as single dose suspension; type: ADME, organism-based; details: in vivo
[14] = Tmax in healthy human at 10 mg administered as single dose suspension; type: ADME, organism-based; details: in vivo
[15] = test system: Homo sapiens; test: Toxicity in healthy human assessed as incidence of drug related incidence of pruritis at 10 mg, qd for 10 days administered as suspension measured after last dose; type: organism-based; details: in vivo, 240 h
[16] = Tmax in healthy human at 25 mg administered as single dose suspension; type: ADME, organism-based; details: in vivo
[17] = test system: Homo sapiens; test: Toxicity in healthy human assessed as incidence of drug related incidence of somnolence at 50 mg administered as single dose suspension; type: organism-based; details: in vivo
[18] = test system: Homo sapiens; test: Toxicity in healthy human assessed as incidence of drug related incidence of pruritis at 25 mg, qd for 10 days administered as suspension measured after last dose; type: organism-based; details: in vivo, 240 h
[19] = Tmax in healthy human at 5 mg administered as single dose suspension; type: ADME, organism-based; details: in vivo
[20] = Drug level in healthy human at 50 mg, qd for 10 days administered as suspension measured after last dose; type: ADME, organism-based; details: in vivo, read-out: Drug uptake
[21] = Drug level at 24 hrs in healthy human at 100 mg administered as single dose suspension; type: ADME, organism-based; details: in vivo, read-out: Drug uptake
[22] = Apparent oral clearance in healthy human at 2 mg administered as single dose suspension; type: ADME, organism-based; details: in vivo
[23] = Cmax in healthy human at 25 mg, qd for 10 days administered as suspension measured after last dose; type: ADME, organism-based; design: dose 25 mg; details: in vivo
[24] = Half life in healthy human at 5 mg administered as single dose suspension; type: ADME, organism-based; details: in vivo
[25] = AUC (0-t) in healthy human at 5 mg administered as single dose suspension; type: ADME, organism-based; details: plasma
[26] = Half life in healthy human at 2 mg administered as single dose suspension; type: ADME, organism-based; details: in vivo
[27] = AUC (0-t) in healthy human at 50 mg administered as single dose suspension; type: ADME, organism-based; details: plasma
[28] = Tmax in healthy human at 2 mg administered as single dose suspension; type: ADME, organism-based; details: in vivo
[29] = AUC (0-infinity) in healthy human at 5 mg administered as single dose suspension; type: ADME, organism-based; design: dose 5 mg, time infinity; details: plasma
[30] = Drug level at 24 hrs in healthy human at 25 mg administered as single dose suspension; type: ADME, organism-based; details: in vivo, read-out: Drug uptake
[31] = AUC (0-tau) in healthy human at 25 mg, qd for 10 days administered as suspension measured after last dose; type: ADME, organism-based; details: plasma
[32] = test system: Homo sapiens; test: Toxicity in healthy human assessed as incidence of drug related incidence of somnolence at 2 mg administered as single dose suspension; type: organism-based; details: in vivo
[33] = test system: Homo sapiens; test: Toxicity in healthy human assessed as incidence of drug related incidence of somnolence at 25 mg administered as single dose suspension; type: organism-based; details: in vivo
[34] = Half life in healthy human at 100 mg administered as single dose suspension; type: ADME, organism-based; details: in vivo
[35] = Half life in healthy human at 10 mg administered as single dose suspension; type: ADME, organism-based; details: in vivo
[36] = Apparent oral clearance in healthy human at 5 mg administered as single dose suspension; type: ADME, organism-based; details: in vivo
[37] = Half life in healthy human at 25 mg administered as single dose suspension; type: ADME, organism-based; details: in vivo

Work on `C[C@@H]1CCO[C@H]2Cn3cc(C(=O)NCc4ccc(F)cc4F)c(=O)c([O-])c3C(=O)N12.[Na+]` [DOLUTEGRAVIR SODIUM] yielded a concentration at 24 h [1] of 196 ng/mL, an AUC(0-t) [2] of 2630 ng·h/mL and a concentration at 240 h [3] of 840 ng/mL. The concentration at 24 h [4] was 1060 ng/mL, the Activity [5] was 0% and the AUC(0-t) [6] was 131000 ng·h/mL. For the same compound, the concentration at 24 h [7] was 38.2 ng/mL, the CL/F [8] was 11.8 mL/min and the Activity [9] was 0%. The AUC(0-inf) [10] was 73200 ng·h/mL, the half-life [11] was 14.2 h and the Activity [12] was 0%. The CL/F [13] was 11.3 mL/min, the Tmax [14] was 0.63 h and the Activity [15] was 0%. For the same compound, the Tmax [16] was 0.75 h, the Activity [17] was 33% and the Activity [18] was 0%. The Tmax [19] was 0.5 h, the concentration at 240 h [20] was 1640 ng/mL and the concentration at 24 h [21] was 1800 ng/mL. The CL/F [22] was 12 mL/min, the Cmax [23] was 3090 ng/mL and the half-life [24] was 14.3 h. The AUC(0-t) [25] was 8540 ng·h/mL, the half-life [26] was 12.7 h and the AUC(0-t) [27] was 70800 ng·h/mL. The Tmax [28] was 0.63 h, the AUC(0-inf) [29] was 8870 ng·h/mL and the concentration at 24 h [30] was 469 ng/mL. It also gave an AUC tau at 240 h [31] of 38400 ng·h/mL, an Activity [32] of 0% and an Activity [33] of 0%. It also gave a half-life [34] of 14.7 h, a half-life [35] of 12.7 h and a CL/F [36] of 9.33 mL/min. It also gave a half-life [37] of 12.7 h.
